This is an account of results in a melting point compilation (Tetko et al.; mined from patent text by program, amines drawn as free bases though some values may be those of a salt).

Each structure is given as a SMILES string.

`COCCNc1nc2c(N)nc3ccccc3c2n1CC(C)(C)O` yielded a melting point of 176 to 178 °C.

`Cc1nc(-c2ccc(OCC(C)C)c(Br)c2)sc1C(=O)O` gave a melting point of 200 to 202 °C.

The compound `COc1ccc2c(c1)C(=O)c1ccccc1C2=O` showed a melting point of 195 to 197 °C.

In turn, `CCCCCC(Oc1ccc(C2=CCCCC2)cc1)C(=O)NC(C)C` (stereo not given) displayed a melting point of 86 to 88 °C.

As for `COC(=O)c1ccc(-c2ccc3cc(OS(=O)(=O)C(F)(F)F)c(C45CC6CC(CC(C6)C4)C5)cc3c2)cc1`, the melting point was 226 to 227 °C.

As for `CC(=O)SCCC(=O)N1c2ccccc2C(C)(C)C1C(N)=O` (stereo not given), the melting point was 156 to 158 °C.

`CCOCCOc1cc(C)c(-c2cccc(COc3ccc(C=CC(=O)OC)cc3)c2)c(C)c1` returned a melting point of 69 °C.

Consider `COc1cc(C)nc(S(C)(=O)=O)n1`, for which the melting point was 80 °C.

Compound `CNc1nc(-c2cccc(NC(=O)c3ccccc3OCc3ccccc3)c2)c2cc(OC)c(OC)cc2n1` came in with a melting point of 192 to 194 °C.

In the case of `CNc1nc(C)c(-c2ccnc(Nc3ccc(N4CCNCC4)cc3)n2)s1`, the melting point was in the range of 253 to 255 °C.

In turn, `CCOC(=O)COc1cc(-c2ccccc2)nc2ccccc12` registered a melting point of 96 °C.

`CC1=C(/C=C/S(=O)(=O)NC(C)C)C(c2cc([N+](=O)[O-])ccc2Cl)C(C(=O)OC(C)C)=C(C)N1` (stereo not given) came in with a melting point of 199 to 201 °C.

Regarding `CC(C)(C)c1cc(C(N)=NO)cc2c1OCC2(C)C`, the melting point fell in the range of 109 to 110 °C.

Consider `CCC1(CC)c2cc(-c3nc4ccccc4s3)ccc2-c2ccc(N(c3cccc(OC)c3)c3cccc(OC)c3)cc21`, for which the melting point was 178 to 180 °C.

Compound `Cn1c(C(F)(F)F)ccc(-c2cc(S(C)(=O)=O)c(Cl)cc2F)c1=O` yielded a melting point of 144 to 145 °C.

`Cc1cc(Oc2c(F)cc(C(F)(F)F)cc2Cl)nn1C(N)=O` had a melting point of 132 to 135 °C.

The compound `Cc1cc(SCc2sc(-c3ccc(C(F)(F)F)cc3)nc2C)ccc1OCC(=O)O` came in with a melting point of 139 to 141 °C.

`CC(C)c1cccc(C(C)C)c1NC(=O)Nc1cccc2ccc(Oc3ccc4nc(COc5ccc(CC6SC(=O)NC6=O)cc5)n(C)c4c3)cc12` (stereo not given): the melting point was 164 to 169 °C.

With `Cc1nc(N2CCN(CC3CC3)C2=O)sc1C(N)=O`, the melting point lay within 198 to 200 °C.

`COc1cccc(OC)c1-c1ccc(C[C@H](NC(=O)c2c(Cl)ccc(-c3c(C)noc3C)c2Cl)C(=O)O)cc1` came in with a melting point of 145 °C.

Take `Nc1c(-c2cc(Cl)ccc2O)c2cc(I)ccc2[nH]c1=O`: the melting point lay in the range of 160 to 162 °C.

For `Nc1ccc2c(=O)n3c(nc2c1)C(=Cc1ccccc1)CCC3`, the melting point was 190 to 193 °C.

For `CNc1cc(N2CCOCC2)nc(N2CCOCC2)n1`, the melting point lay in the range of 127 to 128 °C.

The compound `O=Cc1cc(-c2ccccc2)no1` yielded a melting point of 67 to 69 °C.

Consider `Clc1ccc(COC(CNc2ccc(Cl)c(Cl)c2)Cn2ccnc2)c(Cl)c1` (stereo not given), for which the melting point was in the range of 116 to 117 °C.

In turn, `O=C(Nc1ccc(-c2ccc(C(=O)N3CCN4CCC3CC4)o2)cc1)Nc1cccc(F)c1` displayed a melting point of 230 °C.

Turning to `Cc1cc(C)cc(C(=O)c2c(C(C)C)c(=O)[nH]c(=O)n2COCc2ccccc2)c1`, the melting point is 68 to 70 °C.

Consider `COc1ccc(C=C2OC(=O)c3ccccc32)cc1[N+](=O)[O-]`, for which the melting point was in the range of 173 to 181 °C.

Compound `N#Cc1cccc(C(Oc2ccccc2)Oc2ccccc2)n1` displayed a melting point of 82 to 85 °C.

`COc1ccc(CCn2ccc3ccc(-c4cccc(C(=O)NCCC#N)c4)nc32)cc1OC` returned a melting point of 138 to 139 °C.

Take `COc1ccc(CNc2nc(CN3CCC(C(=O)O)CC3)nc3oc4c(c23)CCCC4)cc1Cl`: the melting point lay in the range of 233 to 235 °C.

The compound `CC(C)(C)OC(=O)NC(Cc1ccccc1)C(O)CNCC(O)C(Cc1ccc(OCC(=O)N2CCOCC2)cc1)NC(=O)OC(C)(C)C` (stereo not given) returned a melting point of 118 to 120 °C.

Take `CC(c1oc2ccccc2c(=O)c1-c1cc(F)cc(F)c1)n1cnc2c(N)ncnc21` (stereo not given): the melting point lay within 267 to 269 °C.

For `O=[N+]([O-])c1oc2ccc(CN3CCOCC3)cc2c1-c1ccccc1`, the melting point lay in the range of 151 to 154 °C.

The compound `COc1cc(CC(C)(C)C(=O)O)cc2c1OC(C)(C)C2` displayed a melting point of 88 to 89 °C.

`CC(SCC(=O)O)c1ccc(-c2ccccc2F)cc1` (stereo not given) yielded a melting point of 125 to 127 °C.

As for `CCCc1nsc(N=C(Cl)N(C)C)c1C#N`, the melting point lay in the range of 108 to 109 °C.

With `CNc1nc(-c2cccc(NC(=O)c3ccc4c(c3)OCO4)c2)c2cc(OC)c(OC)cc2n1`, the melting point was in the range of 205 to 207 °C.

`Cc1oc(-c2ccccc2)nc1COc1ccc(Cn2cc(C=O)c(-c3cccs3)n2)cc1` gave a melting point of 136 to 137 °C.

`CCOC(=O)[C@H](CCc1ccccc1)N[C@@H](C)C(=O)N1C(=O)N(Cc2ccccc2)C[C@H]1C(=O)O`: the melting point fell in the range of 56 to 57 °C.

Take `CN(c1ccc2ccccc2c1)c1nc(=O)c2cccnc2s1`: the melting point lay in the range of 230 to 232 °C.

As to `COc1cc(NS(=O)(=O)c2cccc(C(F)(F)F)c2)cc(OC)c1`, the melting point was 78 to 81 °C.

As to `COc1ccccc1N1CCN(CCCNC(=O)c2cccc3c(=O)cc(-c4ccccc4)sc23)CC1`, the melting point was in the range of 144 to 146 °C.

Take `Cc1ncc2n1-c1ccc(C#N)cc1C(c1ccccc1F)=NC2`: the melting point was 198 to 203 °C.

With `CNC(=O)N(c1ccc(OC(F)(F)F)cc1)c1nc(OCC(F)(F)F)cc(OCC(F)(F)F)n1`, the melting point was 123 to 125 °C.

The compound `c1ccc(-c2cnc(Nc3ccncn3)s2)cc1` displayed a melting point above 250 °C.

For `CN(Cc1ccccc1)C(=O)Cn1c(=O)n(C)c2nc(-c3ccccc3)ncc21`, the melting point fell in the range of 160 to 161 °C.

The compound `CC(=O)c1c(C)sc2ccnn12` came in with a melting point of 130 to 131 °C.

Turning to `CN(C)Cc1ccc(CN)cc1`, the melting point was 38 to 39 °C.

Take `CCOC(=O)c1cn(CCO)c2nc(N3CCN(C(=O)OCC)CC3)c(F)cc2c1=O`: the melting point was in the range of 215 to 217 °C.

In turn, `Cn1c(=O)c2c(nc3n(Cc4ccccc4)c(=O)cc(O)n23)n(C)c1=O` returned a melting point of 206 to 209 °C.

As to `CC(=O)NC(=Cc1cccnc1)C(=O)O`, the melting point fell in the range of 191 to 192 °C.

`Cc1nnc2n1-c1ccc(Cl)cc1C(c1ccccc1Cl)=NN2Cc1ccncc1`: the melting point lay in the range of 195 to 196 °C.

`COc1ccc(S(=O)(=O)N2Cc3ccccc3N(C(=O)COc3ccccc3)CC2C(=O)O)cc1` (stereo not given) had a melting point of 188 to 191 °C.

`CN(C)c1ccc(-n2c(CC(=O)O)c(C(=O)O)c3cc(Oc4ccc(C(F)(F)F)cc4)ccc32)cc1` had a melting point of 235 to 237 °C.

On to `O=C=Nc1ccc(S(=O)(=O)Cl)cc1`, for which the melting point fell in the range of 50 to 52 °C.

In the case of `CNC(=S)N(O)C(C)c1cc(C(C)(C)C)c(O)c(C(C)(C)C)c1` (stereo not given), the melting point lay in the range of 175 to 176 °C.

Regarding `Oc1cc(Cl)c(-n2cnnn2)cc1Oc1ccc(Cl)cc1Cl`, the melting point was in the range of 147 to 148 °C.

As to `Cc1cccc(CC(=O)O)c1OCCCc1cn(-c2ccc(C(F)(F)F)nn2)nc1C(C)(C)C`, the melting point fell in the range of 96 to 97 °C.

The compound `CN1CC(=O)N(c2ccc(C#N)c(C(F)(F)F)c2)C1=S` registered a melting point of 220 to 221 °C.
